Here are results for two compounds from article PMC9674596, “Origin of acetylcholine antagonism in ELIC, a bacterial pentameric ligand-gated ion channel” (Communications Biology, 2022).

Usually IC50 stands for the concentration at which inhibition is half-maximal. Lower therefore signals inhibition by little substance. The EC50 is the concentration at which the effect is half-maximal.

Common to all, as to format: cell-based, Erwinia chrysanthemi
For one experiment, the target named is ELIC Y38W (Dickeya chrysanthemi, UniProt P0C7B7, Y38W). Put plainly: Two-electrode voltage clamp, Y38W mutant ELIC expressed in Xenopus laevis oocytes. The protocol: (§1) Stage V-VI Xenopus laevis oocytes were isolated[72] and deflocculated enzymatically in ND96 buffer without Ca^2+ (96 mM NaCl, 2 mM KCl, 1 mM MgCl2, 2 mM pyruvate, 5 mM HEPES, pH 7.4), but supplemented with 1 mg/mL collagenase B and 1 mg/mL trypsin inhibitor, for 2 h at room temperature under constant stirring. The deflocculation buffer was then gradually removed by washing the oocytes in ND96 buffer (96 mM NaCl, 2 mM KCl, 1 mM MgCl2, 1 mM CaCl2, 2 mM pyruvate, 5 mM HEPES, pH 7.4) for several iterations. The oocytes were then allowed to stir for an additional hour at room temperature under constant stirring with the buffer being periodically replaced until clear. To obtain optimal receptor expression, individually selected and healthy oocytes were injected with 0.2 ng cRNA for wild-type ELIC and 5 ng cRNA for mutants. Subsequently, oocytes were incubated for one day at 16 °C in ND96^+ buffer (96 mM NaCl, 2 mM KCl, 1 mM MgCl2, 1 mM CaCl2, 2 mM pyruvate, and 5 mM HEPES at pH 7.6). […]
(§2) Once in the oocyte chamber, whole-cell currents were recorded using a two-electrode voltage-clamp apparatus (OC-725C oocyte clamp; Harvard Apparatus), with a buffer flow rate of 5–10 mL min^−1. Currents in response to various additions of cysteamine and/or ACh, were measured with the transmembrane voltage clamped at −60 mV. […]
On the technique in general: Two-electrode voltage clamp is typically applied to oocytes expressing channels or transporters.

Another experiment has as its target T1, wild-type ELIC (Dickeya chrysanthemi, UniProt P0C7B7, INS163G).
T1 construct: expressed in transfected cells; host or cells: Xenopus laevis oocytes injected with cRNA from ELIC-pTLN
Put plainly: Two-electrode voltage clamp, whole-cell currents of wild-type ELIC expressed in Xenopus laevis oocytes. As to conditions: for IC50: ACh IC50, WT ELIC. The protocol:
Stage V-VI Xenopus laevis oocytes were isolated[72] and deflocculated enzymatically in ND96 buffer without Ca^2+ (96 mM NaCl, 2 mM KCl, 1 mM MgCl2, 2 mM pyruvate, 5 mM HEPES, pH 7.4), but supplemented with 1 mg/mL collagenase B and 1 mg/mL trypsin inhibitor, for 2 h at room temperature under constant stirring. The deflocculation buffer was then gradually removed by washing the oocytes in ND96 buffer (96 mM NaCl, 2 mM KCl, 1 mM MgCl2, 1 mM CaCl2, 2 mM pyruvate, 5 mM HEPES, pH 7.4) for several iterations. The oocytes were then allowed to stir for an additional hour at room temperature under constant stirring with the buffer being periodically replaced until clear. To obtain optimal receptor expression, individually selected and healthy oocytes were injected with 0.2 ng cRNA for wild-type ELIC and 5 ng cRNA for mutants. Subsequently, oocytes were incubated for one day at 16 °C in ND96^+ buffer (96 mM NaCl, 2 mM KCl, 1 mM MgCl2, 1 mM CaCl2, 2 mM pyruvate, and 5 mM HEPES at pH 7.6). After expression, injected oocytes were placed in a RC-1Z oocyte chamber (Harvard Apparatus; Hamden, CT) containing buffer (pH 7.4) composed of 150 mM NaCl, 0.5 mM BaCl2, 10 mM HEPES, and 1 mM dithiothreitol or 1 µM atropine if cysteamine, or ACh, was used in the experiment, respectively. The presence of the reducing agent, dithiothreitol, ensures that the sulfhydryl group of cysteamine remains reduced.
Once in the oocyte chamber, whole-cell currents were recorded using a two-electrode voltage-clamp apparatus (OC-725C oocyte clamp; Harvard Apparatus), with a buffer flow rate of 5–10 mL min^−1. Currents in response to various additions of cysteamine and/or ACh, were measured with the transmembrane voltage clamped at −60 mV. Dose response curves for each wild-type and mutant ELIC were acquired from at least five oocytes in two different batches. […]

The next experiment has as its target T2, ELIC A75D (Dickeya chrysanthemi, UniProt P0C7B7, A75D/INS163G).
T2 construct: expressed in transfected cells; host or cells: Xenopus laevis oocytes injected with cRNA from ELIC-pTLN
Put plainly: Two-electrode voltage clamp, A75D mutant ELIC expressed in Xenopus laevis oocytes.

The target of a further experiment is ELIC F133W (Dickeya chrysanthemi, UniProt P0C7B7, F133W). Put plainly: cell-based. The protocol: as §1, §2

Consider `CC(=O)OCC[N+](C)(C)C` [ACh, acetylcholine], for which the half-inhibitory concentration (IC50) against ELIC Y38W was 400 ± 100 µM; against wild-type ELIC (inhibition of GABA-activated current, GABA at its EC50 (2.7 mM)), 1100 ± 200 µM; against wild-type ELIC (inhibition of cysteamine-activated current, cysteamine at its EC50 (0.6 mM)), 1000 ± 200 µM; at ELIC A75D, 7000 ± 2000 µM; at ELIC F133W it was 8000 ± 2000 µM.

In turn, `NCCCC(=O)O` [GABA, γ-aminobutyric acid] came in with an EC50 at wild-type ELIC of 2700 ± 300 µM.
